In ChEMBL document CHEMBL5360634, “Turonicin A, an Antifungal Linear Polyene Polyketide from an Australian Streptomyces sp” (J Nat Prod, 2023):
Values after ≈ are worked out from the molar mass of the structure shown.

Experiments:
[1] = Cytotoxicity against human NFF cells assessed as inhibition of cell growth measured after 48 hrs by resazurin staining based analysis; format: toxicity
[2] = Antiproliferative activity against mouse NS-1 cells assessed as inhibition of cell growth measured after 48 hrs by resazurin staining based analysis; format: functional; conditions: NS1, 48 h
Tritrichomonas foetus = test: Antiprotozoal activity against Tritrichomonas foetus KV-1 strain assessed as inhibition of protozoal growth measured after 72 hrs under anaerobic conditions; format: functional, organism-based; conditions: KV-1, 72 h
Staphylococcus aureus = test: Antibacterial activity against Staphylococcus aureus assessed as inhibition of bacterial growth measured after 48 hrs by resazurin staining based analysis; format: functional
Candida albicans = test: Antifungal activity against Candida albicans ATCC 10231 assessed as reduction in fungal growth measured after 48 hrs by resazurin staining based analysis; format: functional
Saccharomyces cerevisiae = test: Antifungal activity against Saccharomyces cerevisiae assessed as reduction in fungal growth measured after 48 hrs by resazurin staining based analysis; format: functional
Bacillus subtilis = test: Antibacterial activity against Bacillus subtilis ATCC 6633 assessed as inhibition of bacterial growth measured after 48 hrs by resazurin staining based analysis; format: functional

Compound | IC50 at 48 h [1] [µM] | IC50 [2] [µM] | IC50 (Tritrichomonas foetus) [µM] | MIC (Staphylococcus aureus) [µg/mL] | MIC (Candida albicans) [µg/mL] | MIC (Saccharomyces cerevisiae) [µg/mL] | MIC (Bacillus subtilis) [µg/mL]
CSC[S@+]([O-])C[C@H](CO)NC(=O)/C=C/c1c(C)[nH]c(=O)[nH]c1=O | 1.2 | 0.4 |  |  |  |  | 
C\C(=C/C=C/C=C/C=C/C=C/CC/C=C/[C@H](C)[C@H](O)[C@@H](C)[C@H](O)/C=C/C=C/C=C/C=C/C=C/C[C@H](O)[C@H](C)C(=O)C[C@H](O)C[C@H](O)C[C@H](O)/C=C/C[C@@H](O)C[C@H](O)C[C@@H](O)C[C@H](O)/C=C/C[C@H](O)/C=C/C[C@H](O)C[C@H](O)CCCN)C(=O)O | > 80 | > 80 | > 80 | 1.5 (≈ 1.29 µM) | 0.0008 (≈ 0.000686 µM) | 0.0002 (≈ 0.000171 µM) | 0.097 (≈ 0.0832 µM)
C\C(=C/C=C/C=C/C=C/CC/C=C/[C@H](C)[C@H](O)[C@@H](C)[C@H](O)/C=C/C=C/C=C/C=C/C=C/C[C@H](O)[C@H](C)C(=O)C[C@H](O)C[C@H](O)C[C@H](O)/C=C/C[C@@H](O)C[C@H](O)C[C@@H](O)C[C@H](O)/C=C/C[C@H](O)/C=C/C[C@H](O)CCCNC(=N)N)C(=O)O | > 80 | 44 | > 80 | 0.39 (≈ 0.343 µM) | 0.0031 (≈ 0.00272 µM) | 0.0008 (≈ 0.000703 µM) | 0.097 (≈ 0.0852 µM)
C\C(=C/C=C/C=C/C=C/CC/C=C/[C@H](C)[C@H](O)[C@@H](C)[C@H](O)/C=C/C=C/C=C/C=C/C=C/C[C@H](O)[C@H](C)C(=O)C[C@H](O)C[C@H](O)C[C@H](O)/C=C/C[C@@H](O)C[C@H](O)C[C@@H](O)C[C@H](O)/C=C/C[C@H](O)/C=C/C[C@H](O)C[C@H](O)CCCN)C(=O)O | > 80 | > 80 | > 80 | 3.1 (≈ 2.72 µM) | 0.0015 (≈ 0.00132 µM) | 0.0004 (≈ 0.000351 µM) | 0.39 (≈ 0.342 µM)
Clc1ccccc1C(c1ccccc1)(c1ccccc1)n1ccnc1 [CLOTRIMAZOLE] |  |  |  |  | 0.1 (≈ 0.29 µM) | 0.4 (≈ 1.16 µM) | 
Cc1ncc([N+](=O)[O-])n1CCO [METRONIDAZOLE] |  |  | 0.9 |  |  |  | 
CN[C@H](CC(C)C)C(=O)N[C@H]1C(=O)N[C@@H](CC(N)=O)C(=O)N[C@H]2C(=O)N[C@H]3C(=O)N[C@H](C(=O)N[C@H](C(=O)O)c4cc(O)cc(O)c4-c4cc3ccc4O)[C@H](O)c3ccc(c(Cl)c3)Oc3cc2cc(c3O[C@@H]2O[C@H](CO)[C@@H](O)[C@H](O)[C@H]2O[C@H]2C[C@](C)(N)[C@H](O)[C@H](C)O2)Oc2ccc(cc2Cl)[C@H]1O [VANCOMYCIN] |  |  |  | 0.8 (≈ 0.552 µM) |  |  | 0.05 (≈ 0.0345 µM)
